According to patent US7915405B2, “2,4-disubstituted-5-aminocarbonyl-1,3-thiazole derivatives for therapeutic agent of antiinflammatory disease, method thereof for preparation, therapeutic agent for antiinflammatory disease induced by SPC activity containing the same” (Korea Research Institute of Chemical Technology, priority 2008, dated 2011):
pIC50: −log10 of the molar value. Where two headings read alike, the source gives them in different places.

Columns and labels:
[1] = test system: TPA-induced inflammation model; assay: Control of inflammatory reaction in mouse TPA-induced inflammation model (ear weight and MPO activity); assay type: in vivo; settings: ICR mice; for Inhibition (%) of inflammatory reaction (ear edema, ear weight) / Inhibition (%) (MPO inhibition): 0.3% in acetone, 20 μl on the ear at 1 hour and 6 hours after TPA; for Inhibition (%) of inflammatory reaction (ear edema, ear weight): measured at 24 hours; for Inhibition (%) (MPO inhibition): value in brackets, MPO activity of ear at 24 hours; for inhibition of TPA-induced inflammatory reactions, ear edema and MPO activity (in words): 0.3% topical, compared with hydrocortisone
Description: In order to examine an inhibitory effect on inflammatory reactions, the following test was carried out using tetradecanoyl phorbol acetate (hereinafter referred to as “TPA”)-induced inflammation model.
The TPA-induced inflammation model was a test method which has been widely used to test inflammatory reaction mechanisms and the effect of inhibitory substances [De Young L M et al., Agents and Actions, 1989, 26, 335-341]. When TPA which is a substance causing an inflammatory reaction is applied to the ear of a test subject, erythema and edema occur. Such inflammatory reactions are measurable through the increase in the activity of myeloperoxidase (MPO) which is essential for bacterial invasion into white blood cells.
Forty 6-week-old ICR mice were prepared, and 20 μl of a TPA solution (Sigma Aldrich Korea) obtained by dissolving TPA in acetone at a concentration of 125 μg/ml was applied to the left ear of each animal. At 1 hour after the application of TPA, 20 μl of each of acetone, the compounds of Examples dissolved in acetone at a concentration of 0.3%, and hydrocortisone (Sigma Aldrich Korea) dissolved in acetone at a concentration of 0.3% was applied to the TPA-applied site, and at 6 hours after the application of TPA, it was applied again to the same site in the same amount (20 μl). At 24 hours after the application of TPA, the mice were sacrificed by cervical dislocation, and the left ear was collected in a given width and measured for weight and MPO activity. Inhibition % of inflammatory reactions was calculated according to the following equation 3, and the results are shown in Table 4 below. Inhibition %=(group treated with TPA alone−group treated with test drug)/(group treated with TPA alone−group not treated with TPA)×100 [Equation 3]

NIH 3T3 cells = assay: Control of cellular division and proliferation induced by SPC ([3H]-thimidine incorporation); assay type: cell-based; settings: for pIC50: compound 0.001-1 μM 30 minutes, then SPC 7 μM, 24 hours, read-out: antagonistic effect on SPC IC50; for inhibition of cellular division and proliferation induced by SPC (in words): SPC 7 μM
Description: Treatment of cells with sphingosylphosphorylcholine (SPC) can induce excessive cellular division and proliferation, thus causing pathological skin conditions [Desai, Biochem. Biophys. […] Accordingly, the compounds prepared in the above Examples were tested for an effect on cellular division and proliferation induced by SPC.
First, 1×10^5 (usually 1×10^4˜10^5) NIH 3T3 cells (American Type Culture Collection, Manassas, Va., USA) were dispensed and cultured on a culture plate, and then cultured in RPMI medium containing no fetal bovine serum for 24 hours to achieve serum starvation. The cells were treated with the compounds prepared in the above Examples, and FTY720, a sphingosine-1-phosphate (S1P) agonist, at concentrations of 0.001 μM, 0.01 μM, 0.1 μM and 1 μM, and were incubated for 30 minutes. Then, SPC (Biomol, Plymouth Meeting, Pa., USA) was added thereto at a concentration of 7 μM, and the cells were incubated at 37° C. for 24 hours. […] Proliferation %=(group treated with test drug−group not treated with SPC)/(group treated with SPC alone−group not treated with SPC)×100 [Equation 1]

[2] = Mus musculus, NIH3T3, serum starved

SMILES	Inhibition (%) of inflammatory reaction (ear edema, ear weight) [1] [%]	pIC50 (NIH 3T3 cells; serum starved)	other results
CCCCC(=O)Nc1nc(N2CCC(N3CCOCC3)CC2)sc1C(=O)N1CCOCC1 [Example 1-21]	52	7.24	
COc1ccccc1N1CCN(c2nc(NC(=O)C3CC3)c(C(=O)N3CCOCC3)s2)CC1 [Example 1-25]		7.17	
CC(C)(C)C(=O)Nc1nc(N2CCN(c3ccccc3F)CC2)sc1C(=O)N1CCCCC1 [Example 1-33]	47	7.96	
CC(C)(C)C(=O)Nc1nc(N2CCN(c3ccccc3C#N)CC2)sc1C(=O)N1CCCCC1 [Example 1-35]		7.03	
CCCCC(=O)Nc1nc(N2CCC(N3CCCC3)CC2)sc1C(=O)N1CCOCC1 [Example 1-22]	53	7.02	Inhibition (%) (MPO inhibition) [1]: 48%
COc1ccccc1N1CCN(c2nc(NC(=O)C(C)(C)C)c(C(=O)N3CCOCC3)s2)CC1 [Example 1-7]		6.57	
CC(C)(C)C(=O)Nc1nc(NCCN2CCCC2)sc1C(=O)N1CCOCC1 [Example 1-13]		7.90	
CC(C)(C)C(=O)Nc1nc(NCc2ccccc2)sc1C(=O)N1CCCCC1 [Example 1-29, N-[2-(benzylamino)-5-(piperidine-1-carbonyl)thiazol-4-yl]pivalamide]	87		inhibition of TPA-induced inflammatory reactions, ear edema and MPO activity (in words) [1]: significantly inhibited; Inhibition (%) (MPO inhibition) [1]: 83%; pIC50 (NIH 3T3 cells; [2]): 8.21; inhibition of cellular division and proliferation induced by SPC (in words) (NIH 3T3 cells): dose-dependently inhibited
Cc1ccccc1N1CCN(c2nc(NC(=O)C(C)(C)C)c(C(=O)N3CCCCC3)s2)CC1 [Example 1-32]	43	7.35	
CC(C)(C)C(=O)Nc1nc(N2CCN(c3ccc(Cl)cc3)CC2)sc1C(=O)N1CCOCC1 [Example 1-8]		6.14	
COc1ccccc1N1CCN(c2nc(NC(=O)C3CCCCC3)c(C(=O)N3CCOCC3)s2)CC1 [Example 1-24]		6.04	
CC(C)(C)C(=O)Nc1nc(N2CCC(N3CCCCC3)CC2)sc1C(=O)N1CCCCC1 [Example 1-38]		6.75	
CCCCC(=O)Nc1nc(NCc2ccccc2)sc1C(=O)N1CCOCC1 [Example 1-19]		7.10	
CCCCC(=O)Nc1nc(NCCN2CCCCC2)sc1C(=O)N1CCCCC1 [Example 1-42]		6.99	
CC(C)(C)C(=O)Nc1nc(NCC2CCCCC2)sc1C(=O)N1CCCCC1 [Example 1-28]	43	6.15	
CC(C)(C)C(=O)Nc1nc(N2CCC(N3CCOCC3)CC2)sc1C(=O)N1CCCCC1 [Example 1-37]	44	7.05	Inhibition (%) (MPO inhibition) [1]: 47%
CC(C)(C)C(=O)Nc1nc(N2CCCCC2)sc1C(=O)N1CCOCC1 [Example 1-1]	21		pIC50 (NIH 3T3 cells; [2]): 6.03
CCCCC(=O)Nc1nc(NCc2ccccc2)sc1C(=O)N1CCCCC1 [Example 1-41]	51	8.01	

SMILES	Inhibition (%) of inflammatory reaction (ear edema, ear weight) [1] [%]	pIC50 (NIH 3T3 cells; serum starved)	other results
CCCCC(=O)Nc1nc(N2CCC(N3CCCC3)CC2)sc1C(=O)N1CCCCC1 [Example 1-44]	57	7.05	
CCCCCCCCc1ccc(CCC(N)(CO)CO)cc1 [FTY720, reference compound]			inhibition of cellular division and proliferation induced by SPC (in words) (NIH 3T3 cells): did not inhibit
CC(C)(C)C(=O)Nc1nc(N2CCC(N3CCOCC3)CC2)sc1C(=O)N1CCOCC1 [Example 1-14]	71	8.03	
COc1ccccc1N1CCN(c2nc(NC(C)=O)c(C(=O)N3CCOCC3)s2)CC1 [Example 1-23]		6.07	
COc1ccccc1N1CCN(c2nc(NC(=O)C(C)(C)C)c(C(=O)N3CCCC3)s2)CC1 [Example 1-49]	38	6.75	
CC(C)(C)C(=O)Nc1nc(N2CCN(c3ccc(F)cc3)CC2)sc1C(=O)N1CCCCC1 [Example 1-34]		7.24	
CC(C)(C)C(=O)Nc1nc(NCc2ccccc2)sc1C(=O)N1CCOCC1 [Example 1-10]	68	7.17	
CC(C)(C)C(=O)Nc1nc(N2CCN(c3ccccn3)CC2)sc1C(=O)N1CCCCC1 [Example 1-36]		6.27	
CCCCC(=O)Nc1nc(NCCN2CCCCC2)sc1C(=O)N1CCOCC1 [Example 1-20]	62	8.12	
CC(C)(C)C(=O)Nc1nc(NCCN2CCCCC2)sc1C(=O)N1CCOCC1 [Example 1-12, N-{5-(morpholine-4-carbonyl)-2-[2-(piperidin-1-yl)ethylamino]thiazol-4-yl}pivalamide]	86		inhibition of TPA-induced inflammatory reactions, ear edema and MPO activity (in words) [1]: significantly inhibited; Inhibition (%) (MPO inhibition) [1]: 80%; pIC50 (NIH 3T3 cells; [2]): 8.24; inhibition of cellular division and proliferation induced by SPC (in words) (NIH 3T3 cells): dose-dependently inhibited
COc1ccc(CNc2nc(NC(=O)C(C)(C)C)c(C(=O)N3CCOCC3)s2)cc1 [Example 1-11]	49	7.03	
CC(C)(C)C(=O)Nc1nc(NCC2CC2)sc1C(=O)N1CCCCC1 [Example 1-27]		6.51	
C[C@]12CCC(=O)C=C1CC[C@@H]1[C@@H]2[C@@H](O)C[C@@]2(C)[C@H]1CC[C@]2(O)C(=O)CO [Hydrocortisone, hydrocortisone, reference compound]	85		
CC(C)(C)C(=O)Nc1nc(N2CCN(c3ccccc3)CC2)sc1C(=O)N1CCOCC1 [Example 1-5]	30	6.72	
CC(C)(C)C(=O)Nc1nc(NCc2ccccc2)sc1C(=O)N1CCCC1 [Example 1-45]		6.01	
CC(C)(C)C(=O)Nc1nc(NCCN2CCCCC2)sc1C(=O)N1CCCCC1 [Example 1-30]	59	6.06	
CC(C)(C)C(=O)Nc1nc(N2CCC(N3CCCCC3)CC2)sc1C(=O)N1CCOCC1 [Example 1-16]		6.99	
CC(C)(C)C(=O)Nc1nc(N2CCC(N3CCCC3)CC2)sc1C(=O)N1CCOCC1 [Example 1-15]		7.68	
